“And” between values parts separate entries of the source, which are not always exact repeats. Equal values may be shown once. Toxic doses and inconclusive results are not listed. Rule for the calls: active = survival T/C of 150% or more; inactive = T/C below 125% in these data.
Tested on: CD2F1 mice, L1210 leukemia ip, survival T/C
Assay: NCI In Vivo Anticancer Drug Screen. Data for tumor model L1210 Leukemia (intraperitoneal) in CD2F1 (CDF1) mice
Conditions: higher = longer survival
Summary of the method: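 Read-out first: treated-group measurement over vehicle-control measurement, expressed as a ratio. Animals bore a transplanted tumor line and were dosed with compound or vehicle.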

[1] = endpoint: mean survival time, dose: 50.0 mg/kg/injection, schedule: Q01DX009 (ip), vehicle: saline with Tween-80
[2] = endpoint: mean survival time, dose: 100.0 mg/kg/injection, schedule: Q01DX009 (ip), vehicle: saline with Tween-80
[3] = endpoint: mean survival time, dose: 100.0 mg/kg/injection, schedule: Q04DX003 (ip), vehicle: saline with Tween-80
[4] = endpoint: mean survival time, dose: 200.0 mg/kg/injection, schedule: Q04DX003 (ip), vehicle: saline with Tween-80
[5] = endpoint: mean survival time, dose: 400.0 mg/kg/injection, schedule: Q04DX003 (ip), vehicle: saline with Tween-80
[6] = endpoint: mean survival time, dose: 100.0 mg/kg/injection, schedule: Q01DX001 (ip), vehicle: saline
[7] = endpoint: mean survival time, dose: 200.0 mg/kg/injection, schedule: Q01DX001 (ip), vehicle: saline
[8] = endpoint: mean survival time, dose: 400.0 mg/kg/injection, schedule: Q01DX001 (ip), vehicle: saline
[9] = endpoint: mean survival time, dose: 100.0 mg/kg/injection, schedule: Q04DX002 (ip), vehicle: saline with Tween-80
[10] = endpoint: mean survival time, dose: 200.0 mg/kg/injection, schedule: Q04DX002 (ip), vehicle: saline with Tween-80
[11] = endpoint: mean survival time, dose: 200.0 mg/kg/injection, schedule: Q01DX009 (ip), vehicle: saline with Tween-80
[12] = endpoint: mean survival time, dose: 400.0 mg/kg/injection, schedule: Q01DX009 (ip), vehicle: saline with Tween-80

Measured: T/C

Nc1c(Br)cc2c(c1Br)Cc1cc(Cl)ccc1-2
inactive: endpoint: mean survival time, dose: 25.0 mg/kg/injection, schedule: Q01DX009 (ip), vehicle: saline with Tween-80 107 % of control | endpoint: mean survival time, dose: 25.0 mg/kg/injection, schedule: Q04DX003 (ip), vehicle: saline with Tween-80 111 % of control | [1] 103 % of control | endpoint: mean survival time, dose: 50.0 mg/kg/injection, schedule: Q04DX003 (ip), vehicle: saline with Tween-80 103 % of control | [2] 102 % of control | [3] 105 % of control | [4] 100 % of control | [5] 86 % of control

Fc1c(F)c(N(c2ccccc2)c2ccccc2)c(F)c(F)c1N(c1ccccc1)c1ccccc1
inactive: [3] 95 % of control | [4] 95 % of control | [5] 93 % of control

CSC(=S)N/N=C/c1ccccn1
inactive: [1] 97 % of control | [2] 98 % of control | [3] 103 % of control | [4] 94 % of control

COC(=O)C(N)CSSCC(N)C(=O)OC (stereo not drawn)
inactive: [6] 108 % of control | endpoint: mean survival time, dose: 100.0 mg/kg/injection, schedule: Q01DX009 (ip), vehicle: saline 102 % of control | [7] 97 % of control | endpoint: mean survival time, dose: 200.0 mg/kg/injection, schedule: Q01DX009 (ip), vehicle: saline 94 % of control | [8] 100 % of control | endpoint: mean survival time, dose: 400.0 mg/kg/injection, schedule: Q01DX009 (ip), vehicle: saline 94 % of control

O=C1c2ccccc2C(=O)N1c1nc2ccccc2s1
inactive: [9] 96 % of control | [10] 89 % of control | endpoint: mean survival time, dose: 400.0 mg/kg/injection, schedule: Q04DX002 (ip), vehicle: saline with Tween-80 100 % of control

O=S(O)C(=NC1CCCCC1)NC1CCCCC1
inactive: [2] 90 % of control | [11] 90 % of control | [12] 105 % of control

COC(=O)c1nc(SC)n(C2OC(COC(=O)c3ccccc3)C(OC(=O)c3ccccc3)C2OC(=O)c2ccccc2)c1CC#N (stereo not drawn)
inactive: endpoint: median survival time, dose: 9.13 mg/kg/injection, schedule: Q01DX005 (ip), vehicle: saline with Tween-80 100 % of control | endpoint: median survival time, dose: 18.25 mg/kg/injection, schedule: Q01DX005 (ip), vehicle: saline with Tween-80 98 % of control | endpoint: median survival time, dose: 36.5 mg/kg/injection, schedule: Q01DX005 (ip), vehicle: saline with Tween-80 91 % of control | endpoint: median survival time, dose: 73.0 mg/kg/injection, schedule: Q01DX005 (ip), vehicle: saline with Tween-80 98 % of control | endpoint: median survival time, dose: 146.0 mg/kg/injection, schedule: Q01DX005 (ip), vehicle: saline with Tween-80 96 % of control

COc1ccc(/C=N/N=C(/N)N[N+](=O)[O-])cc1
inactive: endpoint: mean survival time, dose: 100.0 mg/kg/injection, schedule: Q01DX001 (ip), vehicle: Klucel (hydroxypropylcellulose) (HPC) 94 % of control | endpoint: mean survival time, dose: 200.0 mg/kg/injection, schedule: Q01DX001 (ip), vehicle: Klucel (hydroxypropylcellulose) (HPC) 97 % of control | endpoint: mean survival time, dose: 400.0 mg/kg/injection, schedule: Q01DX001 (ip), vehicle: Klucel (hydroxypropylcellulose) (HPC) 94 % of control

Cc1ccc([N+](=O)[O-])cc1NC(=O)COc1cc(Cl)c(Cl)cc1Cl
inactive: [3] 110 % of control | [4] 90 % of control | [5] 90 % of control

CCC(C=O)Cc1ccccc1 (stereo not drawn)
inactive: [3] 95 % of control | [4] 94 % of control | [5] 88 % of control

O=C1NC(=S)NC(=O)C1Cc1ccccc1O
inactive: [6] 100 % of control | [7] 100 % of control | [8] 101 % of control

[CH-]=C([CH2-])C.[Ni][Br].c1ccc([PH+](c2ccccc2)c2ccccc2)cc1
inactive: endpoint: mean survival time, dose: 25.0 mg/kg/injection, schedule: Q01DX001 (ip), vehicle: saline with Tween-80 101 % of control | endpoint: mean survival time, dose: 50.0 mg/kg/injection, schedule: Q01DX001 (ip), vehicle: saline with Tween-80 101 % of control | endpoint: mean survival time, dose: 100.0 mg/kg/injection, schedule: Q01DX001 (ip), vehicle: saline with Tween-80 108 % of control

CC(C)NC(=O)N(c1ccccc1)C(C)C
inactive: [2] 102 % of control | [11] 90 % of control

CC(=O)Nc1cc(C)ccc1O
inactive: [2] 98 % of control | [3] 96 % of control | [11] 95 % of control | [4] 104 % of control | [12] 87 % of control | [5] 90 % of control

CCOC(=O)CC1=Cc2c(OC)ccc(OC)c2CC1
inactive: endpoint: mean survival time, dose: 12.5 mg/kg/injection, schedule: Q01DX009 (ip), vehicle: other 95 % of control | endpoint: mean survival time, dose: 25.0 mg/kg/injection, schedule: Q01DX009 (ip), vehicle: other 106 % of control | endpoint: mean survival time, dose: 50.0 mg/kg/injection, schedule: Q01DX009 (ip), vehicle: other 98 % of control | endpoint: mean survival time, dose: 100.0 mg/kg/injection, schedule: Q01DX009 (ip), vehicle: other 92 % of control | endpoint: mean survival time, dose: 200.0 mg/kg/injection, schedule: Q01DX009 (ip), vehicle: other 88 % of control

C/C(Cl)=C\CSc1ccccc1
inactive: [6] 100 % of control | [7] 100 % of control | [8] 101 % of control

Cn1c(CS)nc2ccccc21
inactive: [9] 101 % of control | [10] 93 % of control

CN(C)C1CCCCC1[N+](C)(C)C (stereo not drawn)
inactive: endpoint: mean survival time, dose: 5.0 mg/kg/injection, schedule: Q01DX009 (ip), vehicle: saline 101 % of control | endpoint: mean survival time, dose: 5.0 mg/kg/injection, schedule: Q04DX003 (ip), vehicle: saline 104 % of control | endpoint: mean survival time, dose: 10.0 mg/kg/injection, schedule: Q01DX009 (ip), vehicle: saline 107 % of control | endpoint: mean survival time, dose: 10.0 mg/kg/injection, schedule: Q04DX003 (ip), vehicle: saline 101 % of control | endpoint: mean survival time, dose: 20.0 mg/kg/injection, schedule: Q01DX009 (ip), vehicle: saline 104 % of control | endpoint: mean survival time, dose: 20.0 mg/kg/injection, schedule: Q04DX003 (ip), vehicle: saline 98 % of control

COc1cc2c(oc(=O)c3cc(C)cc(OC)c32)c2c(C3OC(C)C(O)C(C)(O)C3O)ccc(O)c12 (stereo not drawn)
inactive: endpoint: median survival time, dose: 3.12 mg/kg/injection, schedule: Q01DX005 (ip), vehicle: DMSO 109 % of control and 110 % of control | endpoint: median survival time, dose: 6.25 mg/kg/injection, schedule: Q01DX005 (ip), vehicle: DMSO 108 % of control and 110 % of control | endpoint: median survival time, dose: 12.5 mg/kg/injection, schedule: Q01DX005 (ip), vehicle: DMSO 121 % of control and 103 % of control and 109 % of control | endpoint: median survival time, dose: 25.0 mg/kg/injection, schedule: Q01DX005 (ip), vehicle: DMSO 113 % of control and 118 % of control and 109 % of control | endpoint: median survival time, dose: 50.0 mg/kg/injection, schedule: Q01DX005 (ip), vehicle: DMSO 116 % of control and 112 % of control | endpoint: median survival time, dose: 100.0 mg/kg/injection, schedule: Q01DX005 (ip), vehicle: DMSO 121 % of control

Nc1ncnc2c1ncn2C1OC(CO)C(=C(Br)Br)C1O (stereo not drawn)
inactive: endpoint: mean survival time, dose: 6.25 mg/kg/injection, schedule: Q01DX005 (ip), vehicle: distilled water + Tween-80 103 % of control | endpoint: mean survival time, dose: 12.5 mg/kg/injection, schedule: Q01DX005 (ip), vehicle: distilled water + Tween-80 100 % of control | endpoint: mean survival time, dose: 25.0 mg/kg/injection, schedule: Q01DX005 (ip), vehicle: distilled water + Tween-80 97 % of control | endpoint: mean survival time, dose: 50.0 mg/kg/injection, schedule: Q01DX005 (ip), vehicle: distilled water + Tween-80 101 % of control | endpoint: mean survival time, dose: 100.0 mg/kg/injection, schedule: Q01DX005 (ip), vehicle: distilled water + Tween-80 100 % of control

NC(=O)c1nc(C2OC(CO)C(O)C2O)cs1 (stereo not drawn)
inactive: endpoint: median survival time, dose: 50.0 mg/kg/injection, schedule: Q01DX005 (ip), vehicle: water 100 % of control | endpoint: median survival time, dose: 100.0 mg/kg/injection, schedule: Q01DX005 (ip), vehicle: water 102 % of control | endpoint: median survival time, dose: 200.0 mg/kg/injection, schedule: Q01DX005 (ip), vehicle: water 98 % of control | endpoint: median survival time, dose: 400.0 mg/kg/injection, schedule: Q01DX005 (ip), vehicle: water 101 % of control

OCCC(c1ccccc1)C1CCCCN1 (stereo not drawn)
inactive: endpoint: mean survival time, dose: 75.0 mg/kg/injection, schedule: Q01DX001 (ip), vehicle: saline 101 % of control | endpoint: mean survival time, dose: 150.0 mg/kg/injection, schedule: Q01DX001 (ip), vehicle: saline 100 % of control

Source: PubChem BioAssay AID256 (DTP/NCI, 2004)
